According to US10973832B2, “Muscarinic M1 receptor agonists” (Heptares Therapeutics Limited, priority 2011, dated 2021):

Key:
Rats = assay: Irwin profile; format: in vivo
Experimental: The method, which detects the principal effects of a test substance on behaviour and physiological function, follows that described by Irwin (1968) Psychopharmacologia. Cholinergic side effects are potentially visible in the behavioural readout of the Irwin assay, and an absence of these side effects can be taken as an indication that agonism of the M2 and M3 receptors is not significant in vivo.
Rats are administered the test substance or its vehicle, and are observed in simultaneous comparison with a control group. Behavioural modifications, physiological and neurotoxicity symptoms, rectal temperature and pupil diameter are recorded according to a standardized observation grid derived from that of Irwin. The grid contains the following items: death, convulsions, tremor, Straub tail, altered activity, jumping, abnormal gait (rolling, tiptoe), motor incoordination, altered abdominal muscle tone, loss of grasping, akinesia, catalepsy, loss of traction, loss of balance, fore-paw treading, writhing, piloerection, stereotypies (sniffing, chewing, head movements), head-twitches, scratching, altered respiration, aggression, altered fear/startle, altered reactivity to touch, ptosis, exophthalmia, loss of righting reflex, loss of corneal reflex, analgesia, defecation/diarrhea, salivation, lacrimation, rectal temperature (hypothermia/hyperthermia) and pupil diameter (myosis/mydriasis). […]

[1] = target: T1, human muscarinic M2 receptor (Homo sapiens, UniProt P08172); assay: Phospho-ERK1/2 assay, muscarinic M2; format: cell-based; details: for Emax: CHO, read-out: % Emax cf. ACh (M2)
T1 sequence (P08172 1-466): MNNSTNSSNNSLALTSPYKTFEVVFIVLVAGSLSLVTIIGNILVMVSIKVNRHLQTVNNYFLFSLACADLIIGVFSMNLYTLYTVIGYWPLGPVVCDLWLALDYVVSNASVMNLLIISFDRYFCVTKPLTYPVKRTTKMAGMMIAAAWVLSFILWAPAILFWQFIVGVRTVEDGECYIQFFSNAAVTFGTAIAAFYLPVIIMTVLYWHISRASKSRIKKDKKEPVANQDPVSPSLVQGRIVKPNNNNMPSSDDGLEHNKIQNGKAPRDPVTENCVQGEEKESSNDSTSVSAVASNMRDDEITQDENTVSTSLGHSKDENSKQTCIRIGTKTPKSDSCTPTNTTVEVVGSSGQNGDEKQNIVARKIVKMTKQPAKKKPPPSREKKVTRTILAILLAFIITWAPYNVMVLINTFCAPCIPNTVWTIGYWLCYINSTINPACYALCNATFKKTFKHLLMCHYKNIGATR
Procedure, shortened: (§1)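 The assay used ERK1/2 phosphorylation as a common downstream read-out of Gq/11 and Gi/o receptor activation. CHO cells expressing each human receptor were exposed to agonist for five minutes at 37 °C after overnight serum starvation. Potency (pEC50) and maximal effect (Emax) came from the AlphaScreen signal.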

[2] = target: T2, human muscarinic M4 receptor (Homo sapiens, UniProt P08173); assay: Phospho-ERK1/2 assay, muscarinic M4; format: cell-based; details: for Emax: CHO, read-out: % Emax cf. ACh (M4)
T2 construct: expressed in transfected cells
T2 sequence (P08173 1-479): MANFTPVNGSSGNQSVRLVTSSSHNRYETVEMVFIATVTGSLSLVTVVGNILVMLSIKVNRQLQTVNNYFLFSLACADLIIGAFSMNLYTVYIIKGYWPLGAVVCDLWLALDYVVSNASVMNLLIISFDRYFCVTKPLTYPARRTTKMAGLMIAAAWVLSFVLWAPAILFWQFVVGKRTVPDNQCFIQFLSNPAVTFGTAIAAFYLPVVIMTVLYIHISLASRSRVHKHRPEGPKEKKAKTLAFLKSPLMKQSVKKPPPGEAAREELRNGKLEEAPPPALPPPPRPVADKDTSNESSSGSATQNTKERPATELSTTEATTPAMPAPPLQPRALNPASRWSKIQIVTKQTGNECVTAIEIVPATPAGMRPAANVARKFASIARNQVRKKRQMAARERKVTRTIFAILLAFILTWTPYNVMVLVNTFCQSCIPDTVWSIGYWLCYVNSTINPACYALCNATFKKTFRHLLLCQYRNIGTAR
Procedure, shortened: as §1

[3] = system: CA1 region of rat hippocampal slices; assay: CA1 cell firing (fEPSP amplitude); format: cell-based; details: five point cumulative concentration-response, 6 slices averaged
Experimental: Rat hippocampal slices of […] thickness were cut in chilled (<4° C.) artificial cerebrospinal fluid (aCSF, composition in mM: NaCl 127, KCl 1.6, KH2PO4 1.24, MgSO4 1.3, CaCl2 2.4, NaHCO3 26 and D-glucose 10) using vibratome. Slices were maintained in oxygenated (95% O2/5% CO2) aCSF at room temperature for at least 1 hr prior to electrophysiological recording, after which they were transferred to an interface chamber and constantly perfused with warmed (30° C.) oxygenated aCSF at a flow rate of 1.5-3 ml·min−1. Schaffer collaterals were then stimulated (1-20 V, 0.1 ms pulse width, 0.033 Hz) with a concentric bipolar electrode to evoke field excitatory post synaptic potentials (fEPSPs) recorded from the stratum radiatum of the CA1 region.
Experiments were performed to examine the effect of compound compared to […] carbachol (CCh), on the amplitude of fEPSPs in the CA1 region of rat hippocampal slices. 1 μM CCh was initially applied until steady-state, followed by wash, before performing a five point cumulative concentration-response to compound. Each compound was tested on 6 slices and results averaged. Drug preparation; compound was dissolved in 100% DMSO at a stock concentration of 30 mM, and diluted according to requirements, carbamoylcholine chloride (CCh) was purchased from Sigma (Cat #C4382) and dissolved at a stock concentration of 1 mM in ddH2O.

| SMILES | Irwin observation grid, effects on any parameter vs vehicle (Rats; 3, 10, 30 and 75 mg/kg po, 15, 30, 60, 120, 180 minutes and 24 hours) | EC50 [1] [nM] | Emax [1] [%] | EC50 [2] [nM] | Emax [2] [%] | EC50 [3] [nM] | Irwin observation grid, effects on any parameter vs vehicle (Rats; 5, 10, 20 and 40 mg/kg, 15, 30, 60, 120 and 180 minutes) |
| --- | --- | --- | --- | --- | --- | --- | --- |
| CCOC(=O)N1CCCC(N2CCC(C(=O)NC3(C)CCC3)CC2)CC1 (stereo not drawn) [Example 27, ethyl 4-(4-((1-methylcyclobutyl)carbamoyl)piperidin-1-yl)azepane-1-carboxylate] | No effects on any parameter were observed at any time point | > 20000 | 56 | 427 | 88 | 1210 |  |
| CCOC(=O)N1CCC[C@H](N2CCC(C(=O)NC3(C)CCC3)CC2)CC1 [Example 65, ethyl (4S)-4-{4-[(1-methylcyclobutyl)carbamoyl]piperidin-1-yl)azepane-1-carbondate] |  | > 20000 | 7 | 224 | 97 | 2050 | No significant effects on any parameter were observed |
